Drawing on PubChem BioAssay AID1259407 (Chemical Carcinogenesis Research Information System (CCRIS), 2018), this text covers mutagenic call for 3 compounds.

For the series, the system named is CCRIS mutagenicity, Ames/micronucleus/aberration tests. Kind of series: CCRIS mutagenicity studies.
Setting [1] is: Test System: AMES SALMONELLA TYPHIMURIUM, Strain/Indicator: TA97, Metabolic Activation: NONE, Method: PREINCUBATION
Where [2] appears, read: Test System: AMES SALMONELLA TYPHIMURIUM, Strain/Indicator: TA98, Metabolic Activation: NONE, Method: PREINCUBATION
The mark [3] stands for this setting: Test System: AMES SALMONELLA TYPHIMURIUM, Strain/Indicator: TA100, Metabolic Activation: NONE, Method: PREINCUBATION
[4] abbreviates: Test System: AMES SALMONELLA TYPHIMURIUM, Strain/Indicator: TA102, Metabolic Activation: NONE, Method: PREINCUBATION

Active and inactive are the calls of the source. How the calls were made is not given here.

As to `CCCCCCCCCCCCCCCCN`, the mutagenic call was “inactive; negative” (Test System: AMES SALMONELLA TYPHIMURIUM, Strain/Indicator: TA97, Metabolic Activation: HAMSTER, LIVER, S-9, AROCLOR 1254 (10 OR 30%), Method: PREINCUBATION); “inactive; negative” under setting [1]; “inactive; negative” (Test System: AMES SALMONELLA TYPHIMURIUM, Strain/Indicator: TA97, Metabolic Activation: RAT, LIVER, S-9, AROCLOR 1254 (10 OR 30%), Method: PREINCUBATION); “inactive; negative” (Test System: AMES SALMONELLA TYPHIMURIUM, Strain/Indicator: TA98, Metabolic Activation: HAMSTER, LIVER, S-9, AROCLOR 1254 (10 OR 30%), Method: PREINCUBATION); “inactive; negative” under setting [2]; “inactive; negative” (Test System: AMES SALMONELLA TYPHIMURIUM, Strain/Indicator: TA98, Metabolic Activation: RAT, LIVER, S-9, AROCLOR 1254 (10 OR 30%), Method: PREINCUBATION). Also, the mutagenic call (Test System: AMES SALMONELLA TYPHIMURIUM, Strain/Indicator: TA100, Metabolic Activation: HAMSTER, LIVER, S-9, AROCLOR 1254 (10 OR 30%), Method: PREINCUBATION) is “inactive; negative”; the mutagenic call under setting [3] is “inactive; negative”; the mutagenic call (Test System: AMES SALMONELLA TYPHIMURIUM, Strain/Indicator: TA100, Metabolic Activation: RAT, LIVER, S-9, AROCLOR 1254 (10 OR 30%), Method: PREINCUBATION) is “inactive; negative”; the mutagenic call (Test System: AMES SALMONELLA TYPHIMURIUM, Strain/Indicator: TA1535, Metabolic Activation: HAMSTER, LIVER, S-9, AROCLOR 1254 (10 OR 30%), Method: PREINCUBATION) is “inactive; negative”; the mutagenic call (Test System: AMES SALMONELLA TYPHIMURIUM, Strain/Indicator: TA1535, Metabolic Activation: NONE, Method: PREINCUBATION) is “inactive; negative”; the mutagenic call (Test System: AMES SALMONELLA TYPHIMURIUM, Strain/Indicator: TA1535, Metabolic Activation: RAT, LIVER, S-9, AROCLOR 1254 (10 OR 30%), Method: PREINCUBATION) is “inactive; negative”.

For the compound `CNc1ccccc1C(=O)OC`, the mutagenic call reads like this: under setting [1], “inactive; negative”; (Test System: AMES SALMONELLA TYPHIMURIUM, Strain/Indicator: TA97, Metabolic Activation: RAT, LIVER, S-9, AROCLOR 1254, Method: PREINCUBATION) “inactive; negative”; under setting [4], “inactive; negative”; (Test System: AMES SALMONELLA TYPHIMURIUM, Strain/Indicator: TA102, Metabolic Activation: RAT, LIVER, S-9, AROCLOR 1254, Method: PREINCUBATION) “inactive; negative”; (Test System: UDS RODENT HEPATOCYTES, Strain/Indicator: THY INCORP (NON-S-PHASE), Metabolic Activation: NONE, Method: AUTORADIOGRAPHY) “inactive; negative”.

`CCn1cc(C(=O)O)c(=O)c2cc(F)c(N3CCNCC3)cc21`: the mutagenic call is “active; positive” (End Point: In vitro micronucleus, Test System: WTK-1 human lymphoma cells, Metabolic Activation: None); “inactive; negative” under setting [2]; “inactive; negative” (Test System: AMES SALMONELLA TYPHIMURIUM, Strain/Indicator: TA98, Metabolic Activation: RAT LIVER S-9, AROCLOR 1254, Method: PREINCUBATION); “inactive; negative” under setting [3]; “inactive; negative” (Test System: AMES SALMONELLA TYPHIMURIUM, Strain/Indicator: TA100, Metabolic Activation: RAT LIVER S-9, AROCLOR 1254, Method: PREINCUBATION); “active; positive” under setting [4]. In addition, the mutagenic call runs as follows: (Test System: AMES SALMONELLA TYPHIMURIUM, Strain/Indicator: TA102, Metabolic Activation: NONE, Method: STANDARD PLATE) “active; positive”; (Test System: AMES SALMONELLA TYPHIMURIUM, Strain/Indicator: TA102, Metabolic Activation: RAT LIVER S-9, AROCLOR 1254, Method: PREINCUBATION) “active; positive”; (Test System: AMES SALMONELLA TYPHIMURIUM, Strain/Indicator: TA102, Metabolic Activation: RAT LIVER S-9, AROCLOR 1254, Method: STANDARD PLATE) “active; positive”; (Test System: AMES SALMONELLA TYPHIMURIUM, Strain/Indicator: TA104, Metabolic Activation: NONE, Method: PREINCUBATION) “active; positive”; (Test System: AMES SALMONELLA TYPHIMURIUM, Strain/Indicator: TA104, Metabolic Activation: RAT LIVER S-9, AROCLOR 1254, Method: PREINCUBATION) “active; positive”; (Test System: AMES SALMONELLA TYPHIMURIUM, Strain/Indicator: UHT8414, Metabolic Activation: NONE, Method: PREINCUBATION) “inactive; negative”. The mutagenic call reads like this: (Test System: AMES SALMONELLA TYPHIMURIUM, Strain/Indicator: UHT8414, Metabolic Activation: RAT LIVER S-9, AROCLOR 1254, Method: PREINCUBATION) “inactive; negative”; (Test System: Ames Salmonella typhimurium, Strain/Indicator: TA102, Metabolic Activation: Rat, Liver, S9, Aroclor 1254, Method: Preincubation) “active; positive. vitamin e (alpha-tocoferol) induced a statistically significant reduct”; (Test System: CHINESE HAMSTER V-79, Strain/Indicator: V-79 (HPRT)/6-THIOGUANINE, Metabolic Activation: NONE) “inactive; negative”; (Test System: MOUSE LYMPHOMA, Strain/Indicator: L5178Y (HPRT)/6-THIOGUANINE, Metabolic Activation: NONE, Method: FLUCTUATION TEST) “inactive; negative”; (Test System: MOUSE LYMPHOMA, Strain/Indicator: L5178Y (TK+/TK-), Metabolic Activation: NONE, Method: FLUCTUATION TEST) “inactive; negative”.
